PubChem BioAssay AID504765 (Sanford-Burnham Center for Chemical Genomics, 2011)
Calls of active or inactive are those of the source. How the calls were made is not given here.

Each compound was assayed against glucose-6-phosphate dehydrogenase-6-phosphogluconolactonase (Plasmodium falciparum 3D7) (assay: PfG6PD inhibitor potency, dose response, biochemical, fluorescence intensity (AID 504765)). Settings: Recombinant PfG6PD enzyme, fluorescence intensity (NADPH).

| Structure (SMILES) | IC50 |
| --- | --- |
| CC1(OC(=O)C2CCCC2)C(=O)C=C2C=C(c3ccsc3)N(CCc3c[nH]c4ccccc34)C=C2C1=O (stereo not given) | 4.97 µM |
| COc1ccc2c(c1)c(=Cc1ccc(N(C)C)cc1)c1cc(-c3ccccc3)[n+](C)n12 | 17.2 µM |
| Nc1cc(N)c(OCC(F)(F)F)cc1OCC(F)(F)F | 1.61 µM |
| COc1ccc(Cl)cc1NC(=O)c1cccc([N+](=O)[O-])c1O | 8.87 µM |
| COc1ccc(C(=O)/C=C2\Sc3ccccc3N2C)cc1 | 7.94 µM |
| COC(=O)[C@H](C)NC(=O)c1cc2c(cn1)[nH]c1ccccc12 | inactive |
| OCc1ccccc1SSc1ccccc1CO | 16.5 µM |
| Cc1ccc(S(=O)(=O)Nc2nc(C)c(C(=O)N/N=C/c3ccccc3)s2)cc1 | 4.58 µM |
| Oc1cc(-n2cccn2)c(O)cc1-n1cccn1 | 6.03 µM |
| CCn1c(N)c(C(=O)NC)sc1=S | inactive |
| O=C(CSc1nc2ccccc2[nH]1)NC1CCCc2ccccc21 (stereo not given) | 13.4 µM |
| CCN1CCCC1CNC(=O)c1ccc2c(c1)NC(=O)/C(=C\c1ccccc1Cl)S2 (stereo not given) | 3.08 µM |
| COC(=O)CCC(=O)Nc1sc(Cc2ccccc2)c(C)c1C(N)=O | inactive |
| CCn1c(SCc2nc3scc(-c4ccccc4)c3c(=O)[nH]2)nnc1-c1cccs1 | 17.3 µM |
| CCN(CC)c1ccc(NC(=O)c2cccc(C)c2)cc1S(=O)(=O)Nc1ccccc1OC | inactive |
| Cc1c(Cl)c([N+](=O)[O-])nn1Cc1ccc(C(=O)N/N=C\c2cccc(Br)c2)o1 | 9.37 µM |
| COc1cc(/C=C2\SC(c3ccc(C)cc3)=NC2=O)cc(OC)c1O | 9.38 µM |
| Cc1cccc(C(=O)Nc2sc3c(c2C(=O)O)CCCC3)c1 | 8.55 µM |
| O=C(CN1CCN(c2ccc(O)cc2)CC1)Nc1cc(S(=O)(=O)N2CCOCC2)ccc1Cl | inactive |
| Cc1ccc(Cl)cc1NC1=C/C(=N\S(=O)(=O)c2cccs2)c2ccccc2C1=O | inactive |
| CCN(CC)c1ccc(C(=C2C=CC(=[N+](CC)CC)C=C2)c2ccccc2)cc1 | 11.7 µM |
| Cc1nc2ccc(Nc3nc4cc(S(=O)(=O)N5CCOCC5)ccc4o3)cc2s1 | inactive |
| C(=N\Nc1nc2ccccc2[nH]1)/c1ccccn1 | 5.24 µM |

| Structure (SMILES) | IC50 |
| --- | --- |
| C[C@]12CC[C@@H]3c4cc(O)c(O)cc4CC[C@H]3[C@@H]1CC[C@@H]2O | inactive |
| C[C@H](NC(N)=O)C(=O)Nc1ccc(N2CCOCC2)c(S(=O)(=O)Nc2ccc(Cl)cc2)c1 | inactive |
| COc1ccccc1N1CSC2=C(C#N)C(c3ccc(SC)cc3)CC(=O)N2C1 (stereo not given) | 10.6 µM |
| Cc1ccsc1/C=N/NC(=O)c1cccc(S(=O)(=O)Nc2ccccc2Cl)c1 | 13.2 µM |
| Cc1ccc(NC(=O)c2cc(C)n(-c3ccccc3)c2C)cc1 | 14.1 µM |
| ClC(Cl)(c1nnnn1-c1ccccc1)c1nnnn1-c1ccccc1 | 3.8 µM |
| COc1cccc(C(=O)Nc2nnc(S(=O)(=O)N(C)Cc3ccccc3)s2)c1 | 4.04 µM |
| O=c1c2ccccc2sn1-c1ccccc1F | 6.48 µM |
| Cc1cccc(NC2=C(NC(=O)c3ccccc3)C(=O)c3ccccc3C2=O)c1 | 10.6 µM |
| CCOC(=O)c1cnc2ccc(C)cc2c1Sc1ccccc1C(=O)OC | 11.1 µM |
| CN=c1nc(-c2ccccc2)n(-c2ccccc2)s1 | 4.82 µM |
| CCC(=O)OCCNc1cc(Sc2nc3ccccc3s2)c2nonc2c1[N+](=O)[O-] | 16.1 µM |
| CC(=O)Nc1cc2c(cc1[N+](=O)[O-])-c1ccccc1C2O (stereo not given) | 20 µM |
| CCc1cc(-c2n[nH]c(C)c2-c2nc3ccccc3n2C)c(O)cc1O | inactive |
| Oc1cc(CNCc2ccccc2)c(O)cc1CNCc1ccccc1 | 3.36 µM |
| CC(=O)Nc1cc([N+](=O)[O-])ccc1OCc1ccccc1 | 19.8 µM |
| O=C(CCc1ccc(S(=O)(=O)N2CCOCC2)cc1)N/N=C/c1ccc(O)c(O)c1O | 5.82 µM |
| CC(CNc1ccccc1O)C(=O)O (stereo not given) | 6.16 µM |
| Cc1cc(N=NC(=O)c2ccccc2O)c2ccccc2c1O | inactive |
| COc1cc(-c2cc(=O)c3c(O)c(OC)c(OC)c(O)c3o2)ccc1O | 8.95 µM |
| N#CC1=C(N)Oc2c(O)cc3ccccc3c2C1c1ccsc1 (stereo not given) | 6.71 µM |
| C[C@H](CO)N1C[C@H](C)[C@@H](CN(C)C(=O)Nc2ccc(C(F)(F)F)cc2)Oc2c(cccc2N(C)C)C1=O | 5.05 µM |
| COc1ccc(N2C(=O)/C(=C/c3cccs3)NC2=S)cc1 | inactive |

| Structure (SMILES) | IC50 |
| --- | --- |
| N#Cc1ccc(N=c2ssnc2Cl)cc1 | 13.8 µM |
| O=C(NCCCN1CCOCC1)c1sc2cc([N+](=O)[O-])ccc2c1Cl | 6.75 µM |
| O=C(CN1C(=O)C2C3C=CC(C3)C2C1=O)OCC(=O)c1ccc([N+](=O)[O-])cc1 (stereo not given) | 9.71 µM |
| O=[N+]([O-])c1ccc(N/N=C/c2ccc(O)c(O)c2O)c(S(=O)(=O)N2CCOCC2)c1 | 8.74 µM |
| CC1=CC(C)(C)Nc2ccc(OC(=O)CN3C(=O)c4cccc5cccc(c45)C3=O)cc21 | 6.28 µM |
| COc1ccc(OCc2nnc3n2N=C(c2ccccc2)C(CC(=O)O)S3)cc1 (stereo not given) | inactive |
| CCc1c(C(=O)Nc2ccccc2)c(C)[nH]c(=S)c1C#N | inactive |
| Cc1cc(C)nc(/N=C(\N)Nc2ccccc2-c2ccccc2)n1 | 8.17 µM |
| Cc1cc(C(=O)O)ccc1-n1c(C)cc(C=C2C(=O)c3ccccc3C2=O)c1C | 7.14 µM |
| CCCCCCCCn1sccc1=O | 3.75 µM |
| Cc1ccc(Nc2cc(C)c(O)c(C)c2)cc1 | 6.16 µM |
| CCOC(=O)c1ccc(/[N+]([O-])=C/c2ccccc2)cc1 | 2.69 µM |
| Cc1cccc(C(=O)Nc2nnc(S(=O)(=O)N3CCCCCC3)s2)c1 | 6.58 µM |
| O=C(Nc1ccccc1C(=O)N/N=C/c1ccco1)c1ccccc1Cl | 10.6 µM |
| N#Cc1c(C#N)c(SSc2c(C#N)c(C#N)c(N)n2-c2ccccc2)n(-c2ccccc2)c1N | 1.41 µM |
| CC1(C)CN(c2ccccc2)N(C(=O)c2ccc(C#N)cc2)C1=O | 9.37 µM |
| CC1=C(O)C(=O)C=C2C1=CC=C1C2(C)CCC2(C)C3CC(C)(C(=O)O)CCC3(C)CCC12C (stereo not given) | 16.7 µM |
| COc1cc(O)c(C(=O)O)c(-c2cc(O)c(O)cc2C)c1 | 3.75 µM |
| Cc1ccc(-c2csc(NC(=O)c3ccc(Br)cc3)c2C(=O)O)cc1 | 6.25 µM |
| COc1cc(NCc2ccccc2O)c2ncccc2c1 | inactive |
| O=C(COc1ccccc1F)OCC(=O)c1ccc([N+](=O)[O-])cc1 | 12.4 µM |
| CCCNC(=O)Cn1sc2nc(C)cc(C)c2c1=O | 3.13 µM |
| CC1=CC(C)(C)Nc2ccc(OC(=O)CN3C(=O)CCC3=O)cc21 | 12 µM |

| Structure (SMILES) | IC50 |
| --- | --- |
| CC1N(C)c2cccc3cccc(c23)N1C | 11.2 µM |
| O=c1[nH]sc2cc(F)ccc12 | 9.86 µM |
| Cc1cc(SCC(=O)N/N=C/c2ccco2)nc2ccccc12 | 8.11 µM |
| CC(=O)Nc1ccc2sn(-c3ccccc3)c(=O)c2c1 | 2.53 µM |
| COc1c(O)c(O)c2oc(-c3ccccc3)cc(=O)c2c1OC | 10.6 µM |
| CCC(=O)OCOc1ccc(/C=C2/CCC(CN(C)C)C2=O)cc1 (stereo not given) | 6.86 µM |
| Cc1noc(C(=O)Nc2sc3c(c2C#N)CCC3)c1Cl | 4.83 µM |
| COC(=O)CCC(=O)OC1(C)C(=O)C2=CN(c3ccc(OC)cc3)C(c3ccc(OC)cc3)=CC2=C(Br)C1=O (stereo not given) | 3.09 µM |
| c1cncc(CNc2ccc3c(c2)OCO3)c1 | 13.9 µM |
| COc1ccc(S(=O)(=O)Nc2cc(SCC(=O)O)c(O)c3ccccc23)cc1 | 2.03 µM |
| Clc1ccc2nc(-c3ccc(Br)s3)cn2c1 | 8.89 µM |
| Cc1ccc(S(=O)(=O)NNc2ccccc2)cc1 | inactive |
| O=C(Nc1ccc(N2CCN(C(=O)c3ccco3)CC2)c(Cl)c1)c1cc2ccccc2o1 | 10.3 µM |
| O=C(CCl)NCCN1C(=O)S/C(=C\c2cccnc2)C1=O | 9.89 µM |
| COc1ccc(-c2cn3cc(C)ccc3n2)cc1Br | 9.91 µM |
| CCn1c(SCC(=O)Nc2ccccc2OC)nnc1-c1cnccn1 | inactive |
| CC1CCc2c(nc3sc4c(c3c2N)CCCC4)C1 (stereo not given) | 14.9 µM |
| Cc1ccc(/C=C/C(=O)N2CCN(S(=O)(=O)c3ccc(C)c(C)c3)CC2)o1 | inactive |
| Cc1no[n+]([O-])c1COc1cccc(/C=N/Nc2nncn2N)c1 | 6.7 µM |
| C[c-]1[c-](C)[c-](C)[c-](C)[c-]1C.[Fe].c1cc2nccc(N3CCCC3)[c-]2c1 (stereo not given) | inactive |
| COc1ccc(/C=C/c2nc3ccccc3n2C)cc1 | 8.04 µM |
| Cc1ccc(NC(=O)c2cc(N3C(=O)C=CC3=O)ccc2N2CCOCC2)cc1 | 15.7 µM |
| COc1ccc(NS(=O)(=O)c2ccc(N3CCCC3)c(NC(=S)Nc3cccc(C)c3C)c2)cc1 | inactive |

| Structure (SMILES) | IC50 |
| --- | --- |
| Cc1ccc(NC(=O)Cn2sc3ccccc3c2=O)cc1 | 4.24 µM |
| C=CCc1c(C)[nH]c(=S)c(C#N)c1C | 15.3 µM |
| CN1CCN(C(=S)C(=O)Nc2ccc(Br)cc2)CC1 | 7.26 µM |
| COc1ccc(-n2sc3ccccc3c2=O)cc1 | 1.49 µM |
| Cc1ccc(NS(=O)(=O)c2ccccc2Cl)c2c1CC(C)(C)O2 | 8.18 µM |
| COc1cc(N=c2ssnc2Cl)cc(OC)c1 | 13.2 µM |
| Cc1ccc2nc(SCC(=O)NC3CCCc4ccccc43)[nH]c2c1 (stereo not given) | 9.6 µM |
| Cc1nnc(N/N=C\c2ccc(-c3cccc(C(=O)O)c3)o2)n1N | 4.75 µM |
| CN(C)Cc1cc(O)c(CN(C)C)cc1O | 2.03 µM |
| Cc1cc(C)nc(NC(N)=NCCc2ccccc2)n1 | 15 µM |
| COc1cccc(C(=O)Nc2nnc(C(C)C)s2)c1 | 5.83 µM |
| COc1ccc(C(=O)ON=C2C=C(C)C(=O)C(C)=C2)cc1 | inactive |
| O=c1[nH]c2ccccc2n2c(-c3ccccc3)nnc12 | 1.65 µM |
| Cc1ccc(-c2nc(N3CCOCC3)s[n+]2-c2ccccc2)cc1 | 5.65 µM |
| COc1cc(-c2cc(OC)c(O)c(OC)c2)cc(OC)c1O | 8.29 µM |
| O=C(OCC(=O)c1ccc([N+](=O)[O-])cc1)/C(=C\c1ccc(Cl)cc1)NC(=O)c1ccccc1 | inactive |
| O=c1c2ccccc2[se]n1-c1ccccc1 | 9.66 µM |
| N#Cc1ccc2sn(-c3ccccc3)c(=O)c2c1 | 3.47 µM |
| O=C(CCSCCC(=O)NN=Cc1ccccc1)NN=Cc1ccccc1 | 7.76 µM |
| COc1cc(N=c2ssnc2Cl)cc(OC)c1OC | 15.5 µM |
| COc1cc(Sc2ccc(C)cc2)c(OC)cc1N | 7.04 µM |
| CC(=O)Nc1ccc(S(=O)(=O)/N=C2\C(=O)c3ccccc3C([O-])=C2n2cc[n+](-c3ccccn3)c2)cc1 | 12.9 µM |
| CN1C(=O)C(N=Nc2ccc([N+](=O)[O-])cc2)SC1=S (stereo not given) | 5.43 µM |
